Data set [1] in a line: In vivo pharmacokinetics in rats after intravenous or oral cordycepin. More on the design: species or system Sprague Dawley rats. The conditions noted are these: for AUC(0-t) / C0 / clearance: in vivo; for AUC(0-t) / C0 / AUC0→t/Dose of cordycepin: rat plasma; for AUC(0-t): read-out: AUC0→t of cordycepin; for C0: read-out: C0 of cordycepin; for clearance: read-out: CL of cordycepin (converted). The method, then:
Protocols for the animal experiments in this study were reviewed and approved by the University of Nottingham Ethical Review Committee in accordance with the Animals [Scientific Procedures] Act 1986. Four male Sprague Dawley rats (Charles River Laboratories, UK) of 300–350 g body weight were used. The animals were housed in the Bio Support Unit, University of Nottingham at controlled temperature, 12 h light/dark cycle and free access to food and water. The animals were allowed to acclimatise for at least six days prior to any procedures.
Prior to pharmacokinetic studies, jugular vein cannulation surgery was performed under general anaesthesia (<3% isoflurane inhalation) for blood sampling or intravenous drug administration. Following two nights of recovery from surgery, the animals were intravenously or orally administered with the PBS-based formulation (5.5 mg/mL cordycepin) developed in a previously reported study. The dose was 8 or 20 mg/kg for intravenous administration and 8 or 80 mg/kg for oral administration. […] When whole blood was analysed, an aliquot was withdrawn immediately after mixing with the pretreated pentostatin. Otherwise, the mixture was centrifuged (3000 g, 10 min) to obtain plasma and samples were stored within the storage conditions tested prior to analysis.
Samples from Caco-2 permeability, in vitro determination of CordyTP formation and in vivo experiments were subjected to protein precipitation followed by LC-MS/MS analysis. To 50 µL of rat plasma sample, 150 µL of internal standard solution (1.67 µg/mL 2-chloroadenosine in methanol) was added. The samples were then vortex-mixed for 10 s and were centrifuged for 3 min at 17949 g. Supernatant (20 µL) was collected and diluted 10-fold with DDW before injection into the LC-MS/MS for analysis of cordycepin and 3′-deoxyinosine. For analysis of CordyTP, the supernatant was filtered using filter tubes mentioned above and injected without dilution. Tissue samples were homogenised using Bullet Blender Gold (Next Advance, Inc., Troy, NY) in methanol (1:3 w/v) and centrifuged for 3 min at 17949 g. The supernatant was filtered and injected for analysis of CordyTP or diluted 10-fold with DDW for analysis of cordycepin and 3′-deoxyinosine. The LC-MS/MS system was a API4000 QTrap (AB Sciex, Warrington, UK) equipped with HPLC setup of SCL10Avp controller, LC10ADvp pump and SILHTC autosampler (Shimadzu, Milton Keynes, UK). Three different methods were utilised for each compound and multiple reaction monitoring parameters of the MS/MS conditions are shown in Table 1. The HPLC conditions including stationary phases and specific mass spectrometry parameters are shown in Supplementary Information 2. The LC-MS/MS method for cordycepin was fully validated in terms of accuracy, precision, sensitivity, selectivity, linearity and sample storage stability in accordance with the Guidance for Industry, Bioanalytical Method Validation, (2018) published by the US FDA (refer to Supplementary Information 3 for validation procedures and results)[53].
Data are presented as mean ± standard deviation (SD). A two-tailed unpaired t-test was applied for assessment of statistical significance of differences between two groups. For three or more groups, the statistical significance was assessed by application of a one-way ANOVA followed by Tukey’s multiple comparisons test. A p-value lower than 0.05 was deemed statistically significant. Statistical analyses were conducted using GraphPad Prism version 7.01 (GraphPad Software, Inc., La Jolla, CA, USA). Pharmacokinetic parameters were obtained by non-compartmental analysis using Phoenix WinNonlin 6.3 software (Pharsight, Mountain View, CA, USA).
For calculation of pharmacokinetic parameters, the plasma concentration-time curve was plotted in a semi-log scale. From the plot, the elimination rate constant (ke) was calculated. Elimination half-life (t1/2) wasthen calculated using the following equation: […]

Data set [2] is described as follows: Liver microsomal stability, human liver microsomes. The conditions noted are these: human liver microsome, pentostatin −; for CLint scaled at 1 µM: human, liver microsomes. In kind it is in vitro ADME. The method, then: Human and rat liver microsomes were used in the experiment following previously reported methods[49],[50]. Microsomes were used at 0.5 mg protein/mL and cordycepin was tested at 1 µM. […] The reaction mixture was incubated in the shaking incubator at 37 °C for 30 min with sampling every 10 min. The results of intrinsic clearance and the fraction that escapes hepatic metabolism (by both well-stirred and parallel-tube models) were calculated by previously reported equations and physiological parameters[50]–[52]. The experiments were performed in triplicates.
Samples from studies of plasma stability, protein binding, biorelevant solubility and liver microsomal stability were subjected to liquid-liquid extraction and HPLC-UV analysis. To 100 µL of sample, internal standard (2′-deoxyadenosine) was spiked at 10 µg/mL and 300 µL of 0.1 M NaOH was added. Extraction solvent (3 mL) of ethyl acetate-isopropyl alcohol (85:15, v/v) was added and vortex-mixed for 10 min. Samples were then centrifuged at 1160 g for 5 min and the supernatant was transferred and dried under N2 gas. Dried samples were reconstituted with 100 uL of deionised distilled water (DDW) and 40 µL was injected into the HPLC-UV. The HPLC-UV setup was adopted from a validated method[22] with addition of a gradient scheme to elute the impurities from samples. Waters Alliance 2695 module with Waters 996 PDA detector was used for the HPLC-UV system with Capcell Pak C18 3 µm, 4.6 × 150 mm as the stationary phase. Mobile phase was a mixture of acetonitrile (A) and DDW (B) at flow rate 0.8 mL/min with a gradient scheme of the following: 0–9 min, B 94%; 9–14 min, B decreased to 20%; 14–24 min, B 20%; 24–26 min, B increased to 94%; and 26–35 min, B 94%. Calibration curves were constructed at a range of 10 – 20000 ng/mL and chromatograms were obtained at 259 nm of wavelength.
(In general: Liver microsomes are vesicles of endoplasmic reticulum, rich in cytochrome P450 enzymes.)

Where [3] appears, read: male, Sprague Dawley, intravenous cordycepin 8 mg/kg.
The mark [4] stands for this setting: male, Sprague Dawley, intravenous cordycepin 20 mg/kg.

Read-outs that look alike come from different tables or passages of the source.

Results on one compound are retold here after article PMC6823370, “A novel nucleoside rescue metabolic pathway may be responsible for therapeutic effect of orally administered cordycepin” (Scientific Reports, 2019).

The CLint scaled is the rate of metabolic loss divided by the concentration. A higher CLint scaled goes with faster metabolism.

With `Nc1ncnc2c1ncn2[C@@H]1O[C@H](CO)C[C@H]1O` [cordycepin, 3′-deoxyadenosine], in data set [1] (setting [3]), the AUC(0-t) is 196 ± 94 ng·h/mL and the C0 is 890 ± 576 ng/mL. In data set [1] (setting [4]), the AUC(0-t) came to 232 ± 106 ng·h/mL and the C0 was found to be 12300 ± 8840 ng/mL. Besides, the clearance in data set [1] (male, Sprague Dawley, rat, intravenous cordycepin 8 mg/kg) is 1720 mL/min/kg. In data set [1] (male, Sprague Dawley, rat, intravenous cordycepin 20 mg/kg), the clearance was 1520 mL/min/kg. In data set [1] (male, Sprague Dawley, rat, whole blood and plasma, intravenous, 20 mg/kg, intravenous cordycepin 20 mg/kg), the blood plasma ratio is 0.68 ± 0.27. The compound also displayed an AUC0→t/Dose of cordycepin in data set [1] (intravenous cordycepin 8 mg/kg) of 25 ± 12 ng·kg·h/mL/mg. For the same compound, in data set [1] (intravenous cordycepin 20 mg/kg), the AUC0→t/Dose of cordycepin came to 12 ± 5 ng·kg·h/mL/mg. Further, in data set [1] (rat, intravenous cordycepin), the “increase of AUC when dose increased from 8 to 20 mg/kg” value is 1.18 fold and the “increase of C0 when dose increased from 8 to 20 mg/kg” value was 13.8 fold. For the same compound, in data set [1] (rat, intravenous cordycepin 20 mg/kg), the blood/plasma ratio is listed as < 1. Further, the “cordycepin in plasma after oral administration” value in data set [1] (rat, oral cordycepin 8 or 80 mg/kg, any time point, limit of quantification 2 ng/mL) is reported as “not detected in plasma at all”. For the same compound, in data set [2] (NADPH +), the “Fh, parallel-tube model” value is recorded as 0.0 ± 0.0%; the “Fh, well-stirred model” value worked out at 10.3 ± 0.7%; the CLint scaled at 1 µM came to 181 ± 13.9 mL/min/kg. In data set [2] (NADPH −), the “Fh, parallel-tube model” value turned out to be 0.0 ± 0.0%; the “Fh, well-stirred model” value was determined as 10.4 ± 0.3%; the CLint scaled at 1 µM came out at 179 ± 5.3 mL/min/kg.
